Experimental data reported in patent publication US20040077632A1, “Pharmaceutically active hydrophilic sulfonamide derivatives as inhibitors of protein junkinases” (priority 2000, published 2004).
pIC50: −log10 of the molar value. Converted amounts (≈) assume the structure as drawn.

Legend:
[1] = biological target: JNK3 (Homo sapiens, UniProt P53779); assay: JNK3 in vitro assay (c-jun phosphorylation, 33P incorporation, SPA); assay type: biochemical; settings: recombinant pre-activated GST-JNK3, biotinylated GST-c-Jun, 2 μM 33γ-ATP
Experimental: The phosphorylation of c-jun by JNK2 or JNK3 may be followed by monitoring the incorporation of ^33P into c-jun following the protocol below. The inhibitory activity of the compounds according to formula I, in respect of c-jun phosphorylation through JNK, is determined by calculating the phosphorylation activity of a JNK in the presence or absence of the test compounds according to formula I.
JNK3 and/or -2 assays are performed in 96 well MTT plates: incubation of 0.5 μg of recombinant, pre-activated GST-JNK3 or GST-JNK2 with 1 μg of recombinant, biotinylated GST-c-Jun and 2 μM ^33γ-ATP (2 nCi/μl), in the presence or absence of compounds according to formula I and in a reaction volume of 50 μl containing 50 mM Tris-HCl, pH 8.0; 10 mM MgCl2; 1 mM Dithiothreitol, and 100 μM NaVO4. The incubation is performed for 120 min. at R.T and stopped upon addition of 200 μl of a solution containing 250 μg of Streptavidine-coated SPA beads (Amersham, Inc.)*, 5 mM EDTA, 0.1% Triton X-100 and 50 μM ATP, in phosphate saline buffer. After incubation for 60 minutes at RT, beads are sedimented by centrifugation at 1500×g for 5 minutes, resuspended in 200 μl of PBS containing 5 mM EDTA, 0.1% Triton X-100 and 50 μM ATP and the radioactivity measured in a scintillation β counter, following sedimentation of the beads as described above. By replacing biotinylated GST-c Jun with biotinylated GST-1ATF2 or biotinylated myelin basic protein, this assay may also be used to measure inhibition of pre-activated p38 and ERK MAP Kinases, respectively.

[2] = Solubility in water at pH 7.4; assay type: physicochemical; settings: aqueous buffer, pH 7.4, r.t.
Experimental: The compounds have been assessed in respect of their solubility in water, at a pH of 7.4 at room temeprature. In general the solubility of compounds of formula (I) is in a range of at least 50 μg/mL solvent, more preferably of at least 100 μg/mL solvent.

Sequence of JNK3 (P53779 whole entry): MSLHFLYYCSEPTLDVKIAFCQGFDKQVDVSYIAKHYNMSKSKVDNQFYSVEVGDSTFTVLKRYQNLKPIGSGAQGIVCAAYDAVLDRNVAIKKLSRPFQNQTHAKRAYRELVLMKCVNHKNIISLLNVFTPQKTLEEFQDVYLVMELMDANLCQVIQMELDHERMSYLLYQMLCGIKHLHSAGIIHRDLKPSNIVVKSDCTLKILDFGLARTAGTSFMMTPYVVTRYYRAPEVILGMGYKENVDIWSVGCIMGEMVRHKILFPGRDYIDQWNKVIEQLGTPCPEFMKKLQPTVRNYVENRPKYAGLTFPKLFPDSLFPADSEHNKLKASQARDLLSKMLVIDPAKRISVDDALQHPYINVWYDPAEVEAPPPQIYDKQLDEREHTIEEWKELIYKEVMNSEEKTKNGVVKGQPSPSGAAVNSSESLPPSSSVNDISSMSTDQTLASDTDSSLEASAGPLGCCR

pIC50 [1]	solubility [2]	Compound
> 7.00	–	COc1cccc(C(=O)NCc2cc(C(=O)O)c(S(=O)(=O)N3CCC(NCc4ccc(C(F)(F)F)cc4)CC3)s2)c1 [Example 4, 5-{[(3-methoxybenzoyl)amino]methyl}-2-[(4-{[4-(trifluoromethyl)benzyl]amino}-1-piperidinyl)sulfonyl]-3-thiophenecarboxylic acid]
> 7.00	–	N-({4-(hydrazinocarbonyl)-5-[(4-{3-[(trifluoro-methyl)sulfonyl]anilino}piperidin-1-yl)sulfonyl]-thien-2-yl}methyl)-3-methoxybenzamide [Example 6]
> 7.00	0.18 mg/mL (≈ 272 µM)	COc1cccc(C(=O)NCc2cc(C(=O)O)c(S(=O)(=O)N3CCC(Nc4cccc(S(=O)(=O)C(F)(F)F)c4)CC3)s2)c1 [Example 1, 5-{[(3-methoxybenzoyl)amino]methyl}-2-[(4-{3-[(trifluoromethyl) -sulfonyl]anilino}piperidin-1-yl)sulfonyl]thiophene-3-carboxylic acid]
